# “Also recorded” adds a separate entry of the source. Where a name gives a salt, the structure may show the parent alone. Read-outs that look alike come from different tables or passages of the source.
# B1: F1024S-D2(3): modified form of an anti-CD14 antibody in which the domain 2 of urinary trypsin inhibitor (UTI) is bound to the anti-CD14 antibody; fusion protein (antibody)
# heavy: QIQLVQSGPELKKPGESVKISCKASGYTFTDYAMNWVKQAPGNGLKWMGWINTQTGKPTYADDFKQRFVFSLETSASTAYLQINNLNIEDTATYFCTRSTFYYSSYIYGWYFDFWGPGTMVTVSSASTKGPSVFPLAPCSRSTSESTAALGCLVKDYFPEPVTVSWNSGALTSGVHTFPAVLQSSGLYSLSSVVTVPSSSLGTKTYTCNVDHKPSNTKVDKRVESKYGPPGPSGPAPEFLGGPSVFLFPPKPKDTLMISRTPEVTCVVVDVSQEDPEVQFNWYVDGVEVHNAKTKPREEQFNSTYRVVSVLTVLHQDWLNGKEYKCKVSNKGLPSSIEKTISKAKGQPREPQVYTLPPSQEEMTKNQVSLTCLVKGFYPSDIAVEWESNGQPENNYKTTPPVLDSDGSFFLYSRLTVDKSRWQEGNVFSCSVMHEALHNHYTQKSLSLSLGKGSTVAACNLPIVSGPCRAFIKLWAFDAVKGKCVLFPYGGCQGNGNKFDSEKECREYCGVPGDGDEELLRFSN
# light: DIVMTQSPTSISISVGERVTMNCKASQNVGSNVDWYQQKTGQSPKLLIYKASNRYTGVPDRFTGSGSGTDFTFTISNMQAVDLAVYYCMQSNTNPPWTFGGGTKLELKRTVAAPSVFIFPPSDEQLKSGTASVVCLLNNFYPREAKVQWKVDNALQSGNSQESVTEQDSKDSTYSLSSTLTLSKADYEKHKVYACEVTHQGLSSPVTKSFNRGEC
# Assays:
# [1] = tested on: severe septic patients; test: Human clinical test of E5564 in severe septic patients; type: in vivo; conditions: patients meeting at least three SIRS criteria and sCD14-ST equal to or greater than cut-off
# Procedure: (§1) According to one example of the patient selection standards, E5564 is administered to a patient who meets at least three items of the SIRS diagnostic criteria to [4] and whose sCD14-ST concentration is equal to or greater than the cut-off value. Addition of the sCD14-ST concentration to the indexes used in setting the patient selection standards enables establishment of the patient selection standards that suit the action mechanism of E5564 and thus permits further improvement in E5564 efficacy than when the patient selection standards are set using only the physiological conditions as indexes.
# [2] = tested on: rabbit CLP model; test: Rabbit CLP model with E5564 (Example 3-1); type: in vivo; conditions: 3 mg/kg to 10 mg/kg; 1 and 5 hours or 2 and 6 hours after surgery
# Procedure: A rabbit CLP model is prepared as in Example 1. The E5564 administration timing is set to 1 hour and 5 hours after surgery or 2 hours and 6 hours after surgery and, as in Example 1, the sCD14-ST concentration in the blood at the time the therapeutic agent is administered is later checked with reference to the blood sCD14-ST concentration transition data. The dosage of E5564 is 3 mg/kg to 10 mg/kg. The body temperature and the leukocyte count of the rabbits are measured with time and used as indexes of the physiological conditions.
# [3] = tested on: severe septic patients; conditions: high-dosage group; mortality risk 20% to 80% by APACHE II Score; cited from earlier work
# [4] = tested on: rabbit CLP model; test: Resatorvid-administered rabbit CLP model (Example 4); type: in vivo
# Procedure: Two Resatorvid-administered groups were set with different administration timings. Ten mg/kg of Resatorvid was intravenously administered at timings of 1 hour and 5 hours after surgery to one group (hereinafter referred to as first-hour administered group) and 3 hours and 7 hours after surgery to the other group (hereinafter referred to as third-hour administered group). A group not to be administered Resatorvid (hereinafter referred to as control group) was administered a 10% aqueous solution of cyclodextrin, a Resatorvid solvent, 1 hour and 5 hours after surgery. Each of the groups consisted of 10 individuals; survival was checked until 48 hours after surgery. The platelet count and the leukocyte count were measured until 24 hours after surgery.
# [5] = tested on: severe septic patients; test: Human clinical test of Resatorvid in severe septic patients; type: in vivo; conditions: patients meeting at least three SIRS criteria and sCD14-ST equal to or greater than cut-off
# Procedure: The specific standards used for selection of patients are as follows: Severe sepsis meets at least three items of the SIRS diagnostic criteria to [4], and the patient has or is suspected to have an infection requiring treatment with antibiotics. Septic shock needs a vasopressor to maintain a systolic blood pressure of at least 90 mmHg even under an appropriate body fluid management.
# as §1, with “Resatorvid” for “E5564”, “enables” for “permits”
# [6] = tested on: rabbit CLP model; test: Rabbit CLP model with Resatorvid (Example 2-1); type: in vivo; conditions: 3 mg/kg to 10 mg/kg; 1 and 5 hours or 2 and 6 hours after surgery
# Procedure: A rabbit CLP model is prepared as in Example 1. The Resatorvid administration timing is set to 1 hour and 5 hours after surgery or 2 hours and 6 hours after surgery and, as in Example 1, the blood sCD14-ST concentration at the time the therapeutic agent is administered is later checked with reference to the blood sCD14-ST concentration transition data. The dosage of Resatorvid is 3 mg/kg to 10 mg/kg. The body temperature and the leukocyte count of the rabbits are measured with time and used as indexes of the physiological conditions.
# [7] = tested on: severe septic patients; conditions: severe sepsis with shock or respiratory failure, cited from earlier work
# [8] = tested on: cecal ligation and puncture-induced peritonitis rabbit model (rabbit CLP model); test: Rabbit CLP sepsis model, F1024S-D2(3) administered (Example 1); type: in vivo; conditions: for Survival time: 10 mg/kg intravenously two hours after surgery
# Procedure: A cecal ligation and puncture-induced peritonitis rabbit model (rabbit CLP model; CLP for cecal ligation and puncture) was used as the sepsis model to verify the improvement in efficacy of the therapeutic agent for sepsis when a patient to be administered the therapeutic agent for sepsis (F1024S-D2(3)) was selected using the sCD14-ST concentration as index. The rabbit CLP model was prepared using male rabbits, New Zealand white, each weighing 1.5 kg to 1.99 kg on arrival (Kitayama Labes Co., Ltd.), which had their cecum punctured under anesthesia at two places to make holes each measuring 2 cm to release the cecal contents into the peritoneal cavity according to the method described by Keith A et al (Journal of Surgical Research, Vol. 29, 189 (1980)). In order to stabilize the postsurgical state, all the operated individuals were intravenously administered 60 mg/kg of Shiomarin (Latamoxef Sodium for administration by injection, Shionogi & Co., Ltd.) two hours after surgery.
# Blood was sampled at intervals before and after surgery to measure the sCD14-ST concentrations in the blood. The sCD14-ST concentrations in the blood were measured by the method described in Example 3 in WO2009/142303. In this model, the pathology progresses within several hours, resulting in death within 7 to 8 hours after surgery in the earliest cases. Because the measured values of the sCD14-ST concentration in the blood can only be known five to six hours after blood sampling, administering the therapeutic agent only after checking the results is belated. Therefore, the administration timing of the therapeutic agent was set to two hours after surgery, and the blood sCD14-ST concentration at the time when the therapeutic agent was administered was later checked with reference to blood sCD14-ST concentration transition data. Using the respective sCD14-ST concentrations in the blood before surgery of the individuals as normal values, twice the normal values were set as the respective cut-off values. Thus, the survival rates of the cases where the sCD14-ST concentrations in the blood were at least twice the normal values at the time of administration of the therapeutic agent were compared with that of the control cases (see Table 1). The therapeutic agent-administered cases were intravenously administered 10 mg/kg of F1024S-D2(3). The control cases were intravenously administered 10 mg/kg of human immunoglobulin (hIg) in lieu of F1024S-D2(3).
# The transition of the sCD14-ST concentration in the blood reflects the severity of sepsis.
# [9] = tested on: human vascular endothelial cell; conditions: cited from earlier work
# [10] = tested on: LPS-induced sepsis rabbit model; conditions: cited from earlier work
# [11] = tested on: cecal ligation and puncture-induced peritonitis rabbit model; conditions: CLP-induced peritonitis rabbit model; cited from earlier work
molecule,measurement,setting,value
"CCCCCC/C=C\CCCCCCCCCC(=O)N[C@H]1[C@H](OC[C@H]2O[C@H](OP(=O)(O)O)[C@H](NC(=O)CC(=O)CCCCCCCCCCC)[C@@H](OCCCCCCCCCC)[C@@H]2O)O[C@H](COC)[C@@H](OP(=O)(O)O)[C@@H]1OCC[C@@H](CCCCCCC)OC [E5564, α-D-Glucopyranose, 3-O-decyl-2-deoxy-6-O-[2-deoxy-3-O-[(3R)-3-methoxydecyl]-6-O-methyl-2-[[(11Z)-1-oxo-11-octadecenyl]amino]-4-O-phosphono-β-D-glucopyranosyl]-2-[(1,3-dioxotetradecyl)amino]-1-(dihydrogen phosphate), tetrasodium salt]",Efficacy when patient selection standards use sCD14-ST concentration as index,[1],improvement in E5564 efficacy can be observed
same,Efficacy when sCD14-ST concentration is used as index,[2],reveals improvement in the efficacy
same,Mortality rate,[3],"a tendency to reduce the mortality rate was observed in a high-dosage group, but it was of no statistic significance"
"CCOC(=O)C1=CCCC[C@H]1S(=O)(=O)Nc1ccc(F)cc1Cl [Resatorvid, ethyl (6R)-6-[N-(2-chloro-4-fluorophenyl)sulfonyl]cyclohex-1-ene-1-carboxylate]","Recovery in leukocyte count, first-hour versus third-hour administered group",[4]; 10 mg/kg i.v.,observed more significantly in the first-hour administered group than in the third-hour administered group
same,Survival rate versus control group,"[4]; 10 mg/kg i.v. at 1 and 5 hours or 3 and 7 hours after surgery, checked until 48 hours",survival rates improved in the first-hour Resatorvid-administered group and the third-hour Resatorvid-administered group over the control group
same,Platelet count,"[4]; 12th hour after surgery, 10 mg/kg i.v.","showed a tendency to recover at the 12th hour after surgery, but failed to recover"
same,Leukocyte count versus control group,"[4]; 24th hour after surgery, 10 mg/kg i.v.",showed recovery in leukocyte count as compared with the control group
same,"Survival rate, first-hour versus third-hour administered group","[4]; first 24 hours, 10 mg/kg i.v.",the first-hour administered group showed a higher survival rate than the third-hour administered group
same,Efficacy when patient selection standards use sCD14-ST concentration as index,[5],improvement in Resatorvid efficacy can be observed
same,Efficacy when sCD14-ST concentration is used as index,[6],reveals improvement in the efficacy
same,Mortality rate,[7]; high-dosage group,"a tendency to reduce the mortality rate was observed among the high-dosage group, it was of no statistic significance; also recorded: a tendency to reduce the mortality rate was observed in the high-dosage group, it was of no statistic significance"
same,Serum IL-6 level,[7],failed to suppress the serum IL-6 level
B1,Survival time,[8]; Severity Especially high,7 h
same,Survival time,[8]; Severity High,23 h
same,Survival time,[8]; Severity Medium,47 h
same,Effect on survival time versus control cases,[8]; especially high severity cases,no difference in survival time was observed
same,Effect on survival time versus control cases,"[8]; medium to high severity cases, administered when blood sCD14-ST at least twice the normal value",an effect of prolonging the survival time was observed
same,Production of IL-6 induced by LPS stimulation,[9],suppress production of IL-6
same,Survival rate,[10],improve the survival rate of an LPS-induced sepsis rabbit model
same,Survival rate,[11],improve the survival rate of a cecal ligation and puncture-induced peritonitis rabbit model

# — patent US20130280252A1, “METHOD FOR SELECTING PATIENT TO BE GIVEN DRUG FOR TREATING SEPTICEMIA” (MOCHIDA PHARMACEUTICAL CO., LTD., priority 2011, published 2013)
